Common to all, as to test: PXR target gene mRNA expression in differentiated HepaRG cells (RT-qPCR)
Assay type in all cases: cell-based
In general terms: Real-time PCR tracks product formation cycle by cycle.

Data set [1] has as its system CYP2B6. The following applies: 10 µM, 48 h. How it is done: (§1) HepaRG cells (Biopredic, Rennes, France) were cultivated in phenol red-free William’s E medium, supplemented with 10% FBS, 2 mM glutamine, 100 U/mL penicillin, 100 µg/mL streptomycin, 5 µg/mL insulin, and 50 µM hydrocortisone. For gene expression analyses, 1.0 × 10^5 cells were seeded per well of a 12-well plate. After reaching confluence, growth medium was supplemented with 2% DMSO, and cells were further cultivated for 2 weeks for differentiation into hepatocytes, as described previously. Afterward, cells were adapted to induction medium (growth medium with FBS reduced to 2% and 0.2% DMSO) for 48 h. Then chemical treatment was started for another 48 h, with daily medium change.
(§2) Total RNA was prepared from LS174T and HepaRG cells using the NucleoSpin RNA kit (Macherey-Nagel, Düren, Germany). RNA integrity was analyzed by formaldehyde-agarose gel electrophoresis. First strand cDNA was synthesized as described earlier. Relative quantification analyses were conducted with TaqMan RT-PCR utilizing the BioMark HD system and FLEX Six Gene Expression Integrated Fluidic Circuits (Fluidigm, South San Francisco, CA, USA) as described previously. TaqMan gene expression assays were either the commercially available predesigned assays Hs00184500_m1 (ABCB1) and Hs00604506_m1 (CYP3A4) (Thermo Fischer Scientific) or have been described previously: CYP2B6 [31] and 18S rRNA [39]. Data were analyzed as described previously. Gene expression levels were normalized to respective 18S rRNA levels.
(§3) Figure 7 Effects of novel PXR ligands on endogenous PXR target gene expression. […] (B) HepaRG cells were treated with 0.2% DMSO, 10 µM RIF, or 10 µM compound 100 or cotreated with 10 µM RIF and compound 100 for 48 h. mRNA expression was measured as described above.

In data set [2] the test system is ABCB1. To be noted: 48 h. The method, then:
as §1, §2, §3

The test system of data set [3] is CYP3A4. To be noted: 10 µM, 48 h. How it is done:
as §1, §2, §3

As to `O=C(Cc1ccccc1)Nc1ccc(F)c(Nc2ccc3c(c2)CCCCC3=O)c1` [Compound 100], the “expression of CYP2B6 mRNA” value in data set [1] was “induced the expression of ABCB1, CYP2B6, and CYP3A4”. Moreover, the “effect on rifampicin-induced expression of ABCB1” value in data set [2] (10 µM compound + 10 µM rifampicin) was “only minor inhibitory effects”. In addition, the “expression of ABCB1 mRNA” value in data set [2] (10 µM) was “induced the expression of ABCB1, CYP2B6, and CYP3A4”. The “expression of CYP3A4 mRNA” value in data set [3] is “induced the expression of ABCB1, CYP2B6, and CYP3A4”.

The values are drawn from paper PMC9030254, “Target Hopping from Protein Kinases to PXR: Identification of Small-Molecule Protein Kinase Inhibitors as Selective Modulators of Pregnane X Receptor from TüKIC Library” (Cells, 2022).
